For series [1], the target named is Beta-1 adrenergic receptor (Homo sapiens) (UniProt P08588). The note with it: CHO.
In series [2] the target is Beta-3 adrenergic receptor (Homo sapiens) (UniProt P13945).
Series [3] concerns the target Beta-1 adrenergic receptor (Homo sapiens) (UniProt P08588). Briefly: Agonist activity at human adrenergic receptor expressed in CHO cells assessed as cAMP accumulation.
In series [4] the target is Beta-2 adrenergic receptor (Homo sapiens, UniProt P07550).
Description: Agonist activity at human beta2 adrenergic receptor expressed in CHO cells assessed as cAMP accumulation
A short description of series [5]: Oral bioavailability in rat. In kind it is ADME, organism-based. The note with it: in vivo.
Another series concerns Mus musculus. In words: Hypoglycemic activity in diabetic kk mouse assessed as reduction in plasma glucose level at 30 mg/kg, po administered once daily for 4 days by colorimetry. Format: functional. Also noted: scale not given: the % may be the effect or the level left.

Chain of Beta-3 adrenergic receptor (Homo sapiens) (P13945 whole entry, looked up): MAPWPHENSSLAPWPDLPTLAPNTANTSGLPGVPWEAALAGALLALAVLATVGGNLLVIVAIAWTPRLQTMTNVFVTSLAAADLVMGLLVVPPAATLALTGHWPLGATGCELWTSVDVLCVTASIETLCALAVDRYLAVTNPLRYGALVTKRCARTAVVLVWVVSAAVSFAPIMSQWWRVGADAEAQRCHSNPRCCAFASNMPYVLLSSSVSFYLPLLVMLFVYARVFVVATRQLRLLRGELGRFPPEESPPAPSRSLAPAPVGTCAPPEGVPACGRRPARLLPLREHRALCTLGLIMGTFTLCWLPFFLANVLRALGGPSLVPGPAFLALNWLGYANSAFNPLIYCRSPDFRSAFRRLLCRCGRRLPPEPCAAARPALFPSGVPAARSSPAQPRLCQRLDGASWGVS
Chain of Beta-2 adrenergic receptor (P07550 whole entry): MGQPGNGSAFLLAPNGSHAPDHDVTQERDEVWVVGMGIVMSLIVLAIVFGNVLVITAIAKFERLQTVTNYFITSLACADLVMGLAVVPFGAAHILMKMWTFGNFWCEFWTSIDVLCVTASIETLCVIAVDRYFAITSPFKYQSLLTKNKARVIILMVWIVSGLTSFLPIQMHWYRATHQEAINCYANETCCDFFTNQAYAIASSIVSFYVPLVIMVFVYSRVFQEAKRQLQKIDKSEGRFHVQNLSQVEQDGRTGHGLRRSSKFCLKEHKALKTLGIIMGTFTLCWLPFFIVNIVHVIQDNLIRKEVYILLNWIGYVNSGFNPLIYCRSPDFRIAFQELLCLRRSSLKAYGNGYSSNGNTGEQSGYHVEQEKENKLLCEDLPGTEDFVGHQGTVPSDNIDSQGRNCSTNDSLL

On to `Cc1cccnc1CC(=O)Nc1ccc(CCNC[C@H](O)COc2ccccc2)cc1`, for which the Intrinsic activity in series [1] was found to be 0.18. For the same molecule, the EC50 is 330 nM in series [2], 390 nM in series [3] and > 100000 nM in series [4].
`CC(Cc1ccc(NC(=O)Cc2nccn2Cc2ccccc2)cc1)NC[C@H](O)COc1ccccc1` (single isomer, unassigned; diastereomer I) gave an EC50 in series [4] of 27 nM.
Turning to `Cc1cc(C)nc(CC(=O)Nc2ccc(CCNC[C@H](O)COc3ccccc3)cc2)c1`, in series [1], the Intrinsic activity was found to be 0.17. In addition, the figures for the EC50 in series [2], in series [3] and in series [4] were 280 nM, 310 nM and > 100000 nM, respectively.
In series [1], `O=C(Cc1nccn1Cc1ccc(Cl)cc1)Nc1ccc(CCNC[C@H](O)COc2ccccc2)cc1` came in with an Intrinsic activity of 0.13. For the same molecule, the EC50 is 270 nM in series [2], 74 nM in series [3] and > 100000 nM in series [4].
Consider `O=C(Cc1nc2ccccc2n1Cc1ccccc1)Nc1ccc(CCNC[C@H](O)COc2ccccc2)cc1`, for which the EC50 in series [4] was > 100000 nM.
The same measure, in the same setting: with `O=C(Cc1cccc(Cl)n1)Nc1ccc(CCNC[C@H](O)COc2ccccc2)cc1` the figure was > 100000 nM.
On to `O=C(Cc1ncc[nH]1)Nc1ccc(CCNC[C@H](O)COc2ccccc2)cc1`, for which, in series [1], the Intrinsic activity amounted to 0.26. In addition, the EC50 is 9600 nM in series [2], 510 nM in series [3] and > 100000 nM in series [4].
`CS(=O)(=O)Nc1ccc(OC[C@@H](O)CNCCc2ccc(NC(=O)Cc3ccccn3)cc2)cc1`: the Intrinsic activity in series [1] came out at 0.01. Further, the EC50 in series [2], in series [3] and in series [4] was > 100000 nM throughout.
As to `O=C(Cc1nccn1-c1ccccc1)Nc1ccc(CCNC[C@H](O)COc2ccccc2)cc1`, in series [4], the EC50 was > 100000 nM.
For the molecule `O=C(Cc1ccccn1)Nc1ccc(CCNC[C@H](O)COc2ccccc2)cc1`, the Intrinsic activity in series [1] is 0.11. For the same molecule, the EC50 was 120000 nM in series [2], > 100000 nM in series [3] and > 100000 nM in series [4]. In addition, the bioavailability in series [5] was found to be 27%.
Turning to `O=C(Cc1ccccn1)Nc1ccc(CCNC[C@H](O)COc2cccnc2)cc1`, in series [4], the EC50 is > 100000 nM.
As for `O=C(Cc1ccccn1)Nc1ccc(CCNC[C@H](O)COc2cccc3[nH]c(=O)[nH]c23)cc1`, the EC50 in series [4] was > 100000 nM.
`O=C(Cc1cccc(OCc2ccccc2)n1)Nc1ccc(CCNC[C@H](O)COc2ccccc2)cc1`: in series [1], the Intrinsic activity came out at 0.12. Further, the figures for the EC50 in series [2], in series [3] and in series [4] were 2500 nM, 200 nM and > 100000 nM, respectively.
Take `O=C(Cc1cn(Cc2ccccc2)cn1)Nc1ccc(CCNC[C@H](O)COc2ccccc2)cc1`: in series [4], the EC50 was > 100000 nM.
As for `O=C(Cc1ccccn1)Nc1ccc(CCNC[C@H](O)COc2cccc3[nH]c4ccccc4c23)cc1`, in series [4], the EC50 is > 100000 nM.
Still for that read-out and setting: to `CC(Cc1ccc(NC(=O)Cc2nccn2Cc2ccccc2)cc1)NC[C@H](O)COc1ccccc1` (stereo in doubt; 27b) belongs > 100000 nM.
`CCCN(C(=O)Cc1nccn1Cc1ccccc1)c1ccc(CCNC[C@H](O)COc2ccccc2)cc1` showed an Intrinsic activity in series [1] of 0.01. Also, the EC50 in series [2] is 500 nM; in series [3] it was > 100000 nM; in series [4], > 100000 nM.
`O=C(Cc1nccn1Cc1ccc2ccccc2c1)Nc1ccc(CCNC[C@H](O)COc2ccccc2)cc1`: the EC50 in series [4] was > 100000 nM.
Regarding `O=C(Cc1nccn1Cc1ccccc1)Nc1ccc(CCNC[C@H](O)COc2ccccc2)cc1`, the Intrinsic activity in series [1] was 0.2. Besides, the results for the EC50 in series [2], in series [3] and in series [4] were 180 nM, 130 nM and > 100000 nM, respectively. In addition, the Activity in the series with Mus musculus came to 43%.
In series [1], `O=C(Cc1nccn1Cc1ccc(Br)cc1)Nc1ccc(CCNC[C@H](O)COc2ccccc2)cc1` gave an Intrinsic activity of 0.3. In addition, the EC50 is 190 nM in series [2], 71 nM in series [3] and > 100000 nM in series [4].
`O=C(Cc1ccccn1)Nc1ccc(CCNC[C@H](O)COc2ccc(O)cc2)cc1` had an Intrinsic activity in series [1] of 0.14. Also, the EC50 in series [2] is 290 nM; in series [3], 2700 nM; in series [4], > 100000 nM. Further, in series [5], the bioavailability was 2%.
Regarding `CN(C(=O)Cc1nccn1Cc1ccccc1)c1ccc(CCNC[C@H](O)COc2ccccc2)cc1`, the Intrinsic activity in series [1] is 0.04. Also, the concentration giving a half-maximal response (EC50) in series [2] is 280 nM; in series [3] it was > 100000 nM; in series [4], > 100000 nM. In addition, in the series on Mus musculus, the Activity is listed as 38%.
Regarding `O=C(Cc1nccn1Cc1ccccc1)N1CCCc2cc(CCNC[C@H](O)COc3ccccc3)ccc21`, in series [4], the EC50 is > 100000 nM.
Regarding `O=C(Cc1ccccn1)Nc1ccc(CCNC[C@H](O)COc2cccc3[nH]ccc23)cc1`, in series [1], the Intrinsic activity was found to be 0. Besides, the EC50 in series [2] was 1300 nM; in series [3], > 100000 nM; in series [4], > 100000 nM.

What is called EC50 is the concentration needed to bring the measured effect to its halfway point. A word on the bioavailability: it is dose-corrected exposure relative to a reference, in per cent.
